Series [1] concerns H. pylori ATCC 700392. In words: MIC/MBC by broth microdilution, strain ATCC 700392. To be noted: Helicobacter pylori, ATCC700392; for MBC: ATCC 700392; for MIC: ATCC 700392, 72 h. The class given is cell-based.
Series [2] relates to H. pylori strain PMSS1. The series is described as follows: H. pylori gastric colonization in C57BL/6 mice (bacterial counts and qPCR). To be noted: PMSS1, oral 100 mg/kg/day marketed formulation + omeprazole 140 mg/kg/day, 7 days, vs infected non-treated. The class given is in vivo, Helicobacter pylori (in C57BL/6 mice). (In qPCR the cycle at which signal appears reflects the starting amount.)

In series [3] the test system is Mouse. The note with it: cited from earlier work.
The test system of series [4] is Mouse. The series is described as follows: Mouse oral median lethal dose (LD50). The class given is in vivo. To be noted: oral dose 100 mg/kg/day versus mouse oral LD50.
Series [5] addresses T1, H. pylori HsrA response regulator (Helicobacter pylori, UniProt O25684). The series is described as follows: biochemical. In kind it is binding. To be noted: for n (binding stoichiometry): absolute error 0.06; for ΔG: absolute error 0.2 kcal/mol; for ΔH: absolute error 0.4 kcal/mol. Here is the method:
Thermodynamic parameters of the molecular interaction between HsrA and its DHP-class inhibitors were analyzed by isothermal titration calorimetry (ITC) using an AutoiTC200 calorimeter (MicroCal, Malvern Instruments, Malvern, Worcestershire, UK). A solution of 20 µM of the protein in 50 mM Tris-HCl [pH 8], 150 mM NaCl, 10% glycerol, 1% DMSO was titrated with 200 µM of the corresponding ligand (DHP) dissolved in the same buffer at 25 °C. A total of 19 injections of 2 μL was added sequentially to the sample cell after 150 s spacing to ensure that the thermal power returned to the baseline before the next injection. Dissociation constants and binding enthalpies were calculated by non-linear least squares regression data analysis using the software package Origin 7.0 (OriginLab, Northampton, MA, USA).

Series [6] deals with H. pylori ATCC 43504 (metronidazole-resistant). The series is described as follows: MIC/MBC by broth microdilution, strain ATCC 43504 (MTZ-R). In kind it is cell-based. To be noted: Helicobacter pylori; for MBC: ATCC43504; for MIC: ATCC43504, 72 h.
Series [7] addresses T1, H. pylori HsrA response regulator. In kind it is biochemical. To be noted: EMSA, 6 µM HsrA, 120 ng target promoter, 0.1 to 2 mM DHP. Here is the method:
The in vitro biological activity of the H. pylori HsrA response regulator and its potential inhibition by DHP drugs were assessed by electrophoretic mobility shift assay (EMSA) as previously described. Briefly, 120 ng of target DNA (promoter region of the H. pylori porGDAB operon) was mixed with 6 µM of recombinant HsrA [17] in the presence of increasing concentrations (0.1 to 2 mM) of selected DHP drugs. Mixtures of DNA and protein in a 20 μL reaction volume containing 10 mM bis-Tris (pH 7.5), 40 mM KCl, 100 mg/L BSA, 1 mM DTT and 5% glycerol were incubated at room temperature for 20 min and then separated by 6% native polyacrylamide gel electrophoresis. A 150 bp fragment of the Anabaena sp. PCC 7120 gene pkn22 was included as non-specific competitor DNA in all assays. EMSA gels were stained with SYBR Safe® (Thermo Fisher Scientific, Bothell, WA, USA) and analyzed using the Bio-Rad Gel Doc 2000 imaging system.
On the technique in general: A gel shift assay detects complexes by their altered migration in electrophoresis.

Series [8] has as its system H. pylori ATCC 700684 (clarithromycin resistant). The series is described as follows: MIC/MBC by broth microdilution, strain ATCC 700684 (CLR-R). In kind it is cell-based. To be noted: Helicobacter pylori; for MBC: ATCC700684; for MIC: ATCC700684, 72 h. Background: In broth dilution the organism is exposed to a series of concentrations in liquid medium.
Series [9] relates to H. pylori ATCC 700684 (CLR-R). In words: Checkerboard assay with clarithromycin, strain ATCC 700684. The class given is cell-based, Helicobacter pylori. Here is the method:
(§1) Antibacterial synergies of selected DHPs in combination with first-line anti-H. pylori antibiotics were tested by the checkerboard assay. Using 96-well flat-bottom microtiter plates, we assayed the antibacterial effect of the interaction of a range of 2-fold dilutions of clarithromycin or metronidazole with a range of 2-fold dilutions of each selected DHP. Serial dilutions of both antimicrobials (antibiotic and DHP) were firstly prepared using two different sterile microtiter plates, one compound was diluted along the rows in a first plate, and the other compound was diluted along the columns of a second plate. Then, both gradients were mixed in a third microtiter plate and inoculated with a freshly prepared bacterial suspension of H. pylori at 2 × 10^6 CFU/mL in BHI+FBS. Plates were incubated for 48 h at 37 °C under microaerobic conditions. […] The interaction between drugs was determined by calculating the fractional inhibitory concentration index (FICI) as: FICA (MICA in the presence of B/MICA alone) + FICB (MICB in the presence of A/MICB alone).

In series [10] the test system is H. pylori ATCC 43504 (MTZ-R). The series is described as follows: Checkerboard assay with metronidazole, strain ATCC 43504. The class given is cell-based, Helicobacter pylori. The method, then: as §1
The mark [11] stands for this setting: ITC, 25 °C, pH 8, relative error 40%, read-out: Kd.

Molecules are shown by their SMILES. ≈ marks a conversion by molar mass, not a printed value. Like-named read-outs stand apart in the source and are kept apart here.

T1 sequence (O25684 entry or part of it): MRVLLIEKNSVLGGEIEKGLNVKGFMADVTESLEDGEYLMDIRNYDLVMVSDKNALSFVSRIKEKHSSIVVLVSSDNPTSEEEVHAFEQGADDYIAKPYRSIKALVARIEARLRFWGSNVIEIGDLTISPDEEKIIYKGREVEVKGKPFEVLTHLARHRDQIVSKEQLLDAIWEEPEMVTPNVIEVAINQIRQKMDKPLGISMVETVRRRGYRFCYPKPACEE

Usually MBC stands for the smallest concentration meeting the test's criterion for killing. High values mean less potent killing, low ones more potent killing. What is called MIC is the lowest concentration that inhibits growth of the organism. What is called Kd is the constant that tells how readily two partners part at equilibrium. As to `CCOC(=O)C1=C(C)NC(C)=C(C(=O)OC)C1c1cccc([N+](=O)[O-])c1` (stereo not shown) [Nitrendipine], in [1], the MBC came to 8 µg/mL (≈ 22.2 µM) and the minimal inhibitory concentration (MIC) is 8 µg/mL (≈ 22.2 µM). Also, in series [2], the “H. pylori gastric colonization, bacterial counts (CFU/mg of stomach)” value is on record as “significantly reduced” and the “H. pylori gastric colonization, qPCR (bacteria per 10,000 murine cells)” value is reported as “significantly reduced”. For the same molecule, the “Mouse LD50 (mg/kg, oral)” value in [3] (ref PubChem) was 2540 mg/kg. The “Treatment dose, times lower than LD50” value in series [4] is reported as 25.4 times. In series [5], this molecule displayed a Kd of 9 µM. Moreover, in [5] (ITC, 25 °C, pH 8), the “n (binding stoichiometry)” value was found to be 0.75, the ΔG was -6.9 kcal/mol and the ΔH is -2.6 kcal/mol. Also, in series [6], the MBC stood at 16 µg/mL (≈ 44.4 µM) and the MIC was 16 µg/mL (≈ 44.4 µM). Further, in series [7], the “Inhibition of the DNA binding activity of HsrA” value (from here on “Inhibition”) is on record as “noticeably inhibited”. In series [8], this molecule showed an MBC of 8 µg/mL (≈ 22.2 µM) and an MIC of 8 µg/mL (≈ 22.2 µM).
In [1], `COC(=O)C1=C(C)NC(C)=C(C(=O)OC(C)(C)CN(C)CCC(c2ccccc2)c2ccccc2)C1c1cccc([N+](=O)[O-])c1` (stereo not shown) [Lercanidipine] displayed an MBC of 8 µg/mL (≈ 13.1 µM) and an MIC of 8 µg/mL (≈ 13.1 µM). In addition, the “Mouse LD50 (mg/kg, oral)” value in series [3] is recorded as 622 mg/kg. Further, the FICantibiotic in series [9] (clarithromycin in combination with DHP, ATCC 700684 (CLR-R)) was determined as 0.0625. The “Reduction of the MIC value of clarithromycin” value in [9] (in combination with DHP, ATCC 700684) is “up to 16 times”. Moreover, in series [5] (ITC, 25 °C, pH 8), the “n (binding stoichiometry)” value came out at 0.81, the ΔG is -6.4 kcal/mol and the ΔH was -4.8 kcal/mol. Moreover, in [5] (setting [11]), the Kd is 20 µM. Also, in [6], the MBC stood at 64 µg/mL (≈ 105 µM) and the MIC turned out to be 32 µg/mL (≈ 52.3 µM). In addition, in [7], the “Inhibition” value is listed as “noticeably inhibited”. In series [8], this molecule registered an MBC of 8 µg/mL (≈ 13.1 µM) and an MIC of 8 µg/mL (≈ 13.1 µM).
Take `COCCOC(=O)C1=C(C)NC(C)=C(C(=O)OC(C)C)C1c1cccc([N+](=O)[O-])c1` (stereo not shown) [Nimodipine]: in series [1], the minimal bactericidal concentration (MBC) was determined as 8 µg/mL (≈ 19.1 µM) and the MIC came to 8 µg/mL (≈ 19.1 µM). In [2], the “H. pylori gastric colonization, bacterial counts (CFU/mg of stomach)” value is given as “significantly reduced” and the “H. pylori gastric colonization, qPCR (bacteria per 10,000 murine cells)” value is “significantly reduced”. For the same molecule, in [3] (ref PubChem), the “Mouse LD50 (mg/kg, oral)” value is recorded as 940 mg/kg. In series [4], the “Treatment dose, times lower than LD50” value came to 9.4 times. Besides, in series [5] (ITC, 25 °C, pH 8), the “n (binding stoichiometry)” value is 0.71, the ΔG was -7.3 kcal/mol and the ΔH is -2.1 kcal/mol. Moreover, in series [5] (setting [11]), the Kd turned out to be 4.1 µM. In [6], the MBC was 32 µg/mL (≈ 76.5 µM) and the MIC was 16 µg/mL (≈ 38.2 µM). In addition, the “Inhibition” value in series [7] is recorded as “noticeably inhibited”. For the same molecule, the “Reduction of the MIC value of metronidazole” value in series [10] (in combination with DHP, ATCC 43504) is on record as “up to 8 times”. The FICantibiotic in series [10] (metronidazole in combination with DHP, ATCC 43504 (MTZ-R)) is recorded as 0.125. Besides, in series [8], the MBC is 4 µg/mL (≈ 9.56 µM) and it took 4 µg/mL (≈ 9.56 µM) to inhibit growth (MIC).

The values are drawn from article PMC6969910, “Repurposing Dihydropyridines for Treatment of Helicobacter pylori Infection” (Pharmaceutics, 2019).
